Results reported in patent US6352959B1, “Thiochromanoylpyrazolone derivatives” (BASF Aktiengesellschaft, priority 1998, dated 2002).

Experiments:
Avena fatua = experiment: greenhouse herbicidal test; assay type: in vivo; conditions: rate and mode not restated in the sentence
Text: (§1) The seeds of the test plants were sown separately for each species. For the post-emergence treatment, the test plants were first grown to a plant height of from 3 to 15 cm, depending on the plant habit, and only then treated with the active ingredients which had been suspended or emulsified in water. For this purpose, the test plants were either sown directly and grown in the same containers, or they were first grown separately as seedlings and transplanted into the test containers a few days prior to treatment. The application rate for the post-emergence treatment was 0.25 or 0.125 kg of a.s. (active substance) per ha. Depending on the species, the plants were kept at from 10 to 25° C. or from 20 to 35° C. The test period extended over 2 to 4 weeks. During this time, the plants were tended and their response to the individual treatments was evaluated. Evaluation was carried out using a scale from 0 to 100. 100 means no emergence of the plants, or complete destruction of at least the above-ground parts, and 0 means no damage or normal course of growth. [table]

Polygonum persicaria = experiment: greenhouse herbicidal test; assay type: in vivo; conditions: rate and mode not restated in the sentence
Text: as §1

Setaria viridis = experiment: greenhouse herbicidal test; assay type: in vivo; conditions: rate and mode not restated in the sentence
Text: as §1

Sinapis alba = experiment: greenhouse herbicidal test; assay type: in vivo; conditions: rate and mode not restated in the sentence
Text: as §1

## CCCOCc1c(C(=O)c2cnn(C)c2O)ccc2c1S(=O)(=O)CCC2(C)C [Compound 2.17, 4-{[4,4-Dimethyl-8-propoxymethyl-1,1-dioxothiochroman-7-yl]-carbonyl}-5-hydroxy-1-methylpyrazole]
other
  melting point: 84 °C
Avena fatua
  activity against the weed: very good activity
Polygonum persicaria
  activity against the weed: very good activity
Setaria viridis
  activity against the weed: very good activity
Sinapis alba
  activity against the weed: very good activity
